The term EC50 denotes the concentration that produces a half-maximal response. Lower therefore signals an effect from little substance.

This is an account of results in patent publication EP0714896A1, “INDOL DERIVATIVES USEFUL FOR THE TREATMENT OF MIGRAINE, COMPOSITION AND UTILIZATION” (VITA-INVEST, S.A., priority 1994, dated 1995).

One assay concerns isolated rabbit saphenous vein. Put plainly: 5HT1-like agonist activity on the isolated rabbit saphenous vein preparation (contraction). The assay is classed as cell-based. To be noted: Oryctolagus cuniculus; pD2 = -log EC50 of contraction; after phenoxybenzamine 0.3 µM and pargyline 500 µM; 37°C. On the procedure: 5HT1-like agonist activity of the synthesis products on the isolated rabbit saphenous vein preparation.
This study was conducted using the method described by Van Heuven-Nolsen (Van Heuven-Nolsen et al., Eur. J. Pharmacol. 191 (3); 375-382; 1990) and male New Zealand rabbits were used. The animals were sacrificed by exposure to excess CO₂. Thereafter the saphenous vein of each rear extremity was excised. 5 mm long segments were obtained from each vein. Each segment was placed, using appropriate supports, in an organ bath containing a Krebs-Henseleit solution aerated with carbogen and thermostatically controlled to 37°C. These conditions were held for 25 minutes, after which the preparation was subjected to a traction of 2 g at the same time as phenoxybenzamine (0.3 µM) and pargyline (500 µM) were added to the organ bath over 30 minutes. The phenoxybenzamine is an irreversible antagonist of the α-adrenoreceptors, whilst pargyline is a selective monoaminooxidase (MAO) inhibitor. At the end of these 30 minutes, successive washings were performed with Krebs solution every 7 minutes, for a further 30 minutes to remove the excess phenoxybenzamine. Thereafter, the preparation was subjected to an increasing contraction by the addition of cumulative doses of sumatriptan (10⁻⁹ at 3x10⁻⁵ M), followed by washing and allowing to rest for 30 minutes until the segment returns to its basal tension. At the end of this time, a further cumulative curve is plotted with the product to be studied. The pD2 (-log EC₅₀, the product concentration producing 50% of its maximum contraction) and the Emax (maximum contraction achieved) were calculated.
In turn, `CNS(=O)(=O)Cc1ccc2[nH]cc(CCCN3CCN(c4ncnc(OC)c4OC)CC3)c2c1` [Example 51, C-(3-{3-[4-(5,6-dimethoxy-pyrimidin-4-yl)-piperazin-1-yl]-propyl}-1H-indol-5-yl)-N-methyl-methanesulfonamide] gave an EC50 of 7.24 nM.
On the same count and under the same terms, the same measure for `CNS(=O)(=O)Cc1ccc2[nH]cc(CCCNC3CCN(c4ncnc(OC)c4OC)C3)c2c1` (stereo not shown) [Example 56, C-(3-{3-[1-(5,6-dimethoxy-pyrimidin-4-yl)-pyrrolidin-3-ylamino]-propyl}-1H-indol-5-yl)-N-methyl-methanesulfonamide]: 457 nM; for `CNS(=O)(=O)Cc1ccc2[nH]cc(CCCN(C)CCN(C)c3ncnc(OC)c3OC)c2c1` [Example 62, C-{3-[3-({2-[(5,6-dimethoxy-pyrimidin-4-yl)-methyl-amino]-ethyl}-methyl-amino)-propyl]-1H-indol-5-yl}-N-methyl-methanesulfonamide]: 120 nM.
On the same count and under the same terms, under `CNc1ncnc(N2CCN(CCCc3c[nH]c4ccc(CS(=O)(=O)NC)cc34)CC2)c1OC` [Example 64, C-(3-{3-[4-(6-methylamino-5-methoxy-pyrimidin-4-yl)-piperazin-1-yl]-propyl}-1H-indol-5-yl)-N-methyl-methanesulfonamide] stands 105 nM; under `COc1cnc(C)nc1N1CCN(CCCc2c[nH]c3ccc(F)cc23)CC1` [Example 70, 5-fluoro-3-{3-[4-(2-methyl-5-methoxy-pyrimidin-4-yl)-piperazin-1-yl]-propyl}-1H-indole], 324 nM; under `COc1ccc2[nH]cc(CCCN3CCN(c4ncnc(OC)c4OC)CC3)c2c1` [Example 80, 3-{3-[4-(5,6-dimethoxy-pyrimidin-4-yl)-piperazin-1-yl]-propyl}-5-methoxy-1H-indole], 1.38 nM.
Still for that read-out and setting: under `COc1cncnc1N1CCN(CC=Cc2c[nH]c3ccc(F)cc23)CC1` [Example 83, 5-fluoro-3-{3-[4-(5-methoxy-pyrimidin-4-yl)-piperazin-1-yl]-propenyl}-1H-indole] stands 724 nM.
As to `CNS(=O)(=O)Cc1ccc2[nH]cc(CCN3CCN(c4ncncc4OC)CC3)c2c1` [Example 85, C-(3-{2-[4-(5-methoxy-pyrimidin-4-yl)-piperazin-1-yl]-ethyl}-1H-indol-5-yl)-N-methyl-methanesulfonamide], the concentration giving a half-maximal response (EC50) was 2630 nM.
The same measure, in the same setting: the same measure for `CNS(=O)(=O)Cc1ccc2[nH]cc(CCCN3CCN(c4ncncc4-c4ccccc4)CC3)c2c1` [Example 87, C-(3-{3-[4-(5-phenyl-pyrimidin-4-yl)-piperazin-1-yl]-propyl}-1H-indol-5-yl)-N-methylmethanesulfonamide]: 282 nM; for `NCCc1c[nH]c2ccc(O)cc12` [SEROTONIN, reference compound]: 49 nM.
For `CNS(=O)(=O)Cc1ccc2[nH]cc(CCN(C)C)c2c1` [SUMATRIPTAN, sumatriptan, reference compound], a half-maximal effect (EC50) was put at 347 nM.

Staying with this assay, now noted: pD2 = -log EC50 of contraction; after phenoxybenzamine 0.3 µM and pargyline 500 µM; 37°C.
Take `CNS(=O)(=O)Cc1ccc2[nH]cc(CCCNCCN(C)c3ncncc3OC)c2c1` [Example 59, C-[3-(3-{2-[5-methoxy-pyrimidin-4-yl)-methylaminolethylamino}-propyl)-1H-indol-5-yl]-N-methyl-methanesulfonamide.]: the “RABBIT SAPHENOUS VEIN pD2” value was found to be 6.64±0.24.
The same measure, in the same setting: the same measure for “C-(3-{3-[3-(5,6-dimethoxy-pyrimidin-4-yl)-piperazin-1-yl]-1-methyl-1H-indol-5-yl)-N-methyl-methanesulfonamide [Example 78]”: 6.80±0.56.
